Measured values taken from US20150057351A1, “METHOD FOR TREATING NEUROPATHIC PAIN” (SUCAMPO AG, priority 2013, published 2015).
Marks after values point to notes of the source that are not given here.

Assays:
[1] = system: neuropathic pain model rats; experiment: Pain threshold in neuropathic pain model rats (L4/L5 nerve root ligation, Dynamic Plantar Aesthesiometer); type: in vivo, rat; conditions: for Pain threshold, During treatment 2 day: 2-day after start of administration; for Pain threshold, During treatment 4-day: 4-day after start of administration; for Pain threshold, During treatment 7-day: 7-day after start of administration; for Pain threshold, 10-day: 10-day after start of administration; for Pain threshold, Pre-treatment: baseline, before start of administration
[2] = system: patients who have neuropathic pain around the low back and the lower limbs; experiment: Pain intensity by Visual Analogue Scale (VAS), responder rate in patients with neuropathic pain; type: in vivo, human
Protocol: (§1) Compound A and corresponding placebo were injected to the patients who have neuropathic pain around the low back and the lower limbs twice daily for 14 days. For the first 3 days, 30 μg of Compound A was administered twice daily (60 μg/day), and then 60 μg of Compound A was administer twice daily (120 μg/day) for the next 11 days.
The intensity of pain was assessed using Visual Analogue Scale (VAS). A VAS is usually a horizontal line, 100 mm in length, anchored by no pain and awful pain at each end. The patient marks on the line the point that they feel represents their perception of their current state. The VAS score is determined by measuring in millimeters from the left hand end of the line to the point that the patient marks. VAS score was measured before (Pre-treatment) and 15-days (Day 15) after start treatment by Compound A or placebo.

[3] = system: patients who have neuropathic pain around the low back and the lower limbs; experiment: Pain-associated QOL by JOABPEQ (social life function) in patients with neuropathic pain; type: in vivo, human
Protocol: as §1
The patient's pain-associated quality of life (QOL) was assessed using Japan Orthopedic Association Back Pain Evaluation questionnaires (JOABPEQ). Patients self-evaluated their QOL before (Pre-Treatment), 8 days (Day 8) and 15 days (Day 15) after start treatment by Compound A or placebo.

[4] = 30 μg/kg intravenous twice a day for 7 days
[5] = 1 mg/kg oral twice a day for 7 days

Structure (SMILES)	Pain threshold, During treatment 2 day [1, 4]	Pain threshold, During treatment 4-day [1, 4]	Pain threshold, During treatment 7-day [1, 4]	Pain threshold, 10-day [1, 4]	Pain threshold, Pre-treatment ([1]; 30 μg/kg intravenous twice a day, 4 days after surgery)	Pain threshold of the model paw compared with vehicle-control group ([1]; intravenous, 30 μg/kg twice a day)	Rate of responder ([2]; injected twice daily for 14 days: 60 μg/day for 3 days, then 120 μg/day for 11 days, VAS Day 15 vs pre-treatment)	Responder rate compared with placebo treated group ([2]; injected twice daily for 14 days, VAS Day 15)	Change in score of social life function from pre-treatment, Day 15 ([3]; injected twice daily for 14 days: 60 μg/day for 3 days, then 120 μg/day for 11 days, Day 15, JOABPEQ)	Social life function (JOABPEQ factor) ([3]; injected twice daily for 14 days, vs placebo)	Change in score of social life function from pre-treatment, Day 8 ([3]; injected twice daily: 60 μg/day for 3 days, then 120 μg/day, Day 8, JOABPEQ)	Pain threshold, During treatment 2 day [1, 5]	Pain threshold, During treatment 4-day [1, 5]	Pain threshold, During treatment 7-day [1, 5]	Pain threshold, 10-day [1, 5]	Pain threshold, Pre-treatment ([1]; 1 mg/kg oral twice a day)	Pain threshold of the model paw compared with vehicle-control group ([1]; oral, 1 mg/kg twice a day for 7 days)
CCCCC(F)(F)C(=O)CC[C@H]1CCC(=O)[C@@H]1CCCCCCC(=O)O [Compound A, (−)-7-[(1R,2R)-2-(4,4-difluoro-3-oxooctyl)-5-oxocyclopentyl]heptanoic acid]	6.8 ± 0.3 g	7.6 ± 0.3 g	8.1 ± 0.3 g	8.4 g	6.1 ± 0.2 g	statistically significantly increased	94.4% (N = 18) *	significantly higher	3.0 ± 2.8 (N = 20)	significantly improved	2.7 ± 2.8 (N = 20) ^a	–	–	–	–	–	–
CCCCC(F)(F)C(=O)CC[C@H]1CCC(=O)[C@@H]1CCCC/C=C/C(=O)O [Compound B, (E)-7-[(1R,2R)-2-(4,4-difluoro-3-oxooctyl)-5-oxocyclopentyl]hept-2-enoic acid]	–	–	–	–	–	–	–	–	–	–	–	7.7 ± 0.3 g	8.2 g	8.6 ± 0.2 g	8.2 ± 0.2 g	6.8 ± 0.2 g	statistically significantly increased
